Data reported in patent publication US20140221301A1, “COMBINATION TREATMENT FOR CANCER” (priority 2011, published 2014).

Assays:
leukemia cell lines = test: Cell growth and viability, MTS assay, leukemia cell lines; type: cell-based; conditions: 72 hours, tested leukemia cell lines
Procedure: FIG. 1. […] (A) TEX and (B) M9-ENL1 cells were plated in 96-well plates and drugs were added to the wells (5 μL per well) for final concentrations of 10 μM (shown) and 1 μM. Cell growth and viability was measured at 48 hours (M9-ENL-1) and 72 hours (TEX) by MTS assay. Cell viability is shown for each compound as a percent of cells treated with DMSO alone. (C) Leukemia, (D) myeloma, and (E) solid tumor cell lines were seeded in 96-well plates and then treated with increasing concentrations of tigecycline. Cell growth and viability was measured at 72 hours by MTS assay. Cell viability is expressed as mean percentage plus or minus SD (n=3) relative to vehicle-treated cells. […] Cell viability was measured at 72 hours by MTS assay. Cell viability is expressed as mean percentage plus or minus SD (n=3) relative to vehicle-treated cells.
Human leukemia (OCI-AML2, HL60, U937) cell lines were maintained in RPMI 1640 medium. Myeloma (LP-1, KMS11, 8226, JJN3, OP-M2) cell lines were maintained in Iscove's media. […]
Cell growth and viability was assessed by the MTS assay (Promega, Madison, Wis.) according to the manufacturer's instructions. Apoptosis and cell death was measured by Annexin V-fluroscein isothiocyanate (FITC; Biovision Research Products, Mountain View, Calif.), propidium iodide staining and flow cytometry according to the manufacturer's instructions and as previously described^30.

[1] = test system: normal hematopoietic cells; test: Methylcellulose colony formation assay, normal hematopoietic cells; type: cell-based, human; conditions: 5 μM, normal hematopoietic cells n=5, 14 days
Procedure: FIG. 2. Tigecycline induces cell death and inhibits clonogenic growth in primary AML cells preferential over normal hematopoietic cells. Mononuclear cells from peripheral blood of leukemia patients (blast count>80%) and normal G-CSF expanded donors was treated with increasing concentrations of tigecycline for 48 hours. Cell viability was measured by Annexin-PI flow cytometry staining. Cell viability is expressed as a mean percentage plus or minus SD (n=3) relative to DMSO-treated cells. Mononuclear cells from primary AML patient samples (A, B) and normal peripheral blood cells (C) were plated in methylcelluose with 5 μM of Tigecycline. (D) Colony forming units were counted at 7 days (AML) and 14 days (Normal) post plating. […]
To assess clonogenic growth, primary AML cells (1.0×10^5/mL) or granulocyte colony-stimulating factor (G-CSF) mobilized PBSCs (1.0×10^5/mL) were plated in duplicate with increasing concentrations of tigecycline in MethoCult GF H4434 medium (StemCell Technologies, Vancouver, BC) containing 1% methycellulose in IMDM, 30% FCS, 1% bovine serum albumin, 3 U/mL of recombinant human erythropoietin, 10^−4 M of 2-mercaptoethanol, 2 mM of L-glutamine, 50 ng/mL of recombinant human stem cell factor, 10 ng/mL of GM-CSF, and 10 ng/mL of rh IL-3). Seven days (AML samples) or 14 days (normal PBCS) after plating, the number of colonies was counted as previously described^31.

[2] = test system: TEX cells and primary AML samples; test: Mitochondrial membrane potential, JC-1, leukemia cells; type: cell-based, human; conditions: 5 μM, times preceding onset of cell death
Procedure: FIG. 4. Tigecycline decreases mitochondrial Cox-1 protein levels in TEX cells. (A) Cells from TEX, OCI-AML2 and two primary AML patients were treated with increasing concentrations (2.5 μM and 5 μM) of tigecycline for 36 and 48 hours of tigecycline. Total proteins were extracted and analyzed by western blotting for Cox-1, Cox-2, Cox-4, grp78, XIAP, actin and tubulin. (B) TEX and AML patient cells were treated with increasing concentrations (2.5 μM and 5 μM) of tigecycline. Cox-1, Cox-2, and Cox-4 mRNA expression relative 18S was determined by quantitative RT-PCR. Data is shown as mean±SD. […] Complex I, II and IV enzyme activity relative to citrate synthase activity was determined as described in materials and methods. […] Mitochondrial membrane potential (ΔΨ) was determined by staining cells with JC-1 dye, and flow cytometry analysis (Red/Green ratio). Reactive oxygen species generation (ROS) was determined by staining with h2-DCFDA and Dihydroethidium (DHE).
To measure mitochondrial membrane potential, cells were treated with tigecycline similarly as described above and then washed twice with PBS and incubated with 5 μM of 5,5′,6,6′-tetrachloro-1,1′,3,3′-tetraethyl benzimidazolylcarbocyanine iodide (JC-1, Sigma-Aldrich) for 20 minutes at 37° C. Each sample was then washed twice with 1 mL PBS and resuspended in 500 μL PBS prior to being read on a BD FACSCalibur. […]

## CN(C)c1cc(NC(=O)CNC(C)(C)C)c(O)c2c1C[C@H]1C[C@H]3[C@H](N(C)C)C(O)=C(C(N)=O)C(=O)[C@@]3(O)C(O)=C1C2=O [tigecycline]
Leukemia cell lines
  IC50: 5 to 8 µM
[1]
  reduction of clonogenic growth: 34±5%
[2]
  mitochondrial membrane potential: decreased
